Test results as given in patent publication EP2444396A1, “PHOTOPROTECTIVE COMPOSITION” (Apoteknos Para La Piel, S.L., priority 2009, dated 2010).
Several values for one entry are separate records, joined by “and”; a condition that tells them apart may be missing. Identical values can stand only once. Marks after values point to notes of the source that are not given here.

Columns and labels:
[1] = UV spectrum: wavelengths of maximum absorption and absorbance (Cecil 2021 UV-Visible Spectrophotometer); assay type: physicochemical; conditions: for UV spectrum A (a.u): absorbance at the maximum of the same line; for UV spectrum λ (nm): wavelengths of the maximum absorption
[2] = system: inflammation induced by phorbol 12-myristate-13-acetate (PMA); test: Topical anti-inflammatory activity: ear inflammation induced by PMA in mice; assay type: in vivo; parameters: RE / RE Average: unit not given here; conditions: 4 hours
Method: The topical anti-inflammatory activity of p-nitrolophine has been analyzed in this study since erythema is a inflammatory process. Specifically, the inhibition of inflammation induced by phorbol 12-myristate-13-acetate (PMA) was evaluated and compared with an anti-inflammatory product of reference (indometacin). 37 mice were divided into the following groups: positive control group (PMA 0.5 mg); negative control group (indometacin 0.5 mg); treated groups (0.5 mg and 1 mg of p-nitrolophine). All the solutions were prepared using acetone (ppa) as vehicle. 20 µL of solution of 25 mg/mL of phorbol 12-myristate-13-acetate (PMA) [Fluka cod 79346] (10 µL in each face) was administered in the right ear of each mouse. Immediately after administering the PMA, nothing more was administered into the positive control group; 20 µL of the solution of 25 mg/mL of indometacin was administered to the negative control group, and 20 µL of the solution of 25 or 50 mg/mL of 4-nitrolophine was administered in the same manner to the treated groups. Animals having no lesions or skin and ear irritation were used.
After 4 hours of post-treatment, the mice were sacrificed through cervical fracture and a portion of 6 mm in diameter was obtained from each ear with a hollow punch which was weight in precision analytical balance. The difference in weight (Δ) between the right ear (treated) and the left ear (non treated) for each animal and for each group were calculated. The percentage of inhibition (% inh) was estimated and calculated according to the following equation: % inh = 100(1-Δt/Δc) [formula] wherein Δt represents the difference in the treated groups and Δc the difference for the […].
In order to analyze the results, an one way ANOVA and Dunnet test for multiple comparison was used, values of P<0.05 were considered significant. A software, Graphpad Instat Version 3.06, was used for such purposes.

[3] = system: MCF-7 breast cancer cell line; test: E-Screen cell proliferation test; assay type: cell-based, human; parameters: dose or concentration left out as unconfirmed; conditions: 144 h
[4] = target: T1, ERβ (Homo sapiens, UniProt Q92731); test: Estrogenicity reporter gene bioassay (luciferase activity) in HELN-ERβ cells; assay type: cell-based
T1 construct: expressed in transfected cells; host or cells: HeLa (HELN-ERβ)
Text: Briefly, the transactivation bioassay (Reporter gene assay) used are based on the use of breast and uterine cancer cell lines transfected with different native or modified hormone receptors. The resulting cell lines further contain a reporter gene regulated by estrogens through the estrogen response element, the globin promoter and the luciferase gene.
HELN-ERα and HELN-ERβ cell lines were obtained by means of transfecting the HeLa uterine cancer cell line. In a first phase, said cells were transfected with an estrogen sensitive response element and then with the estrogen receptor alpha or beta (ERα or ERβ). The selection of clones resistant to geneticin and puromycin was performed using a concentration of 1 mg/mL and 0.5 mg/mL, respectively. The maintenance medium as well as the experimental medium of these 2 cell lines is DMEM F12 without phenol red supplemented with 6% of FBS (lacking of estrogens), 1% of penicillin / streptomycin, 1 mg/mL of geneticin and 0.5 µg/mL of puromycin.
The cells were seeded at a density of 5x10^4 cells per well in white opaque 96 well plates in 150 µL of experimental medium. After 8 hours, the compounds to be assayed (p-nitrolophine and estradiol) were prepared (concentrated 4x) in the same medium and were added to each well (50 µl). The cells were incubated for 16 hours at 37°C. At the end of the incubation, the medium was removed and replaced with fresh medium containing […] luciferin [at that concentration, luciferin diffuses into cell producing a luminescent signal which is stable after 5 minutes and for at least 2 hours]. The plates were then introduced in the luminometer to measure the luminescence for 2 seconds. A YicroBeta Trilux luminometer (EGG Wallac) apparatus was used to detect luciferase activity.
The assays were preformed in quadruple for each concentration (0.01-10 µM) in at least three independent experiments. […] The values of luciferase activity obtained were analyzed using the one-way ANOVA statistic test. The differences were considered significant when P was less than […] (P < 0.05).

[5] = system: MCF-7 breast cancer cell line; test: E-Screen cell proliferation test; assay type: cell-based, human; conditions: MCF-7 cells, over control
Text: The E-Screen proliferation test is based on the use of MCF-7 breast cancer cell line. The MCF-7 cells [which endogenously expressed the estrogen receptor alpha (ERα)], respond to the treatment with estradiol increasing its proliferative rate, synthesizing new proteins and transcribing certain specific genes. […] The test compares the number of cells or the cell proliferation obtained after 6 days of culture. The cells grow in culture medium supplemented with human serum lacking of estrogens, in the presence and/or absence of estradiol as well as of the chemical compounds suspected of having estrogenic activity. The E-Screen test was performed following the methodology previously described by Soto et al. ["An in culture bioassay to assess the estrogenicity of xenobiotics. […] Health Perspect. 103:844-850; 1995]. […] The assay was ended after 144 hours of subculture (exponential phase) after drawing out the medium and fixing the cells for the application of sulforhodamine-B technique. Finally, the cell growth for each experimental group is related to the growth obtained for the negative control (absence of hormone) and with respect to estradiol (positive control). Once the E-Screen test is performed, the maximum cell proliferation rate induced by the compound also known as proliferative effect (PE) was established by calculating the ratio existing between the maximum proliferation rate obtained for the compound and the proliferation rate of the negative control. The proliferation data corresponding with the successive dilutions of the compound were transformed after the application of the correction factor for the dilution of each experimental point, the arithmetic mean of the data obtained being calculated. Another parameter is the relative proliferative efficiency (RPE). […] In this assay, the estrogenicity E-Screen test commonly used to identify the hormonal activity of compounds interacting specifically with the estrogen receptor alpha (ERα), has been used. The assays were performed in triplicate for each concentration (range: 300-0.003 µg/ml) in at least three independent experiments.

[6] = Absorption spectrum in methanol (195 - 400 nm); assay type: physicochemical; conditions: peak wavelength, 10 mg/ml
Method: In order to determine the absorption spectrum, a solution of 10 mg/ml of methanol was prepared from each of the substances. The methanol in turn was used to adjust the zero absorbance in each of the wavelengths in the range of 195 - 400 nm.

[7] = system: Erythema induced by UVB radiation in mouse; test: Photoprotection: erythema induced by UVB radiation in mouse skin; assay type: in vivo; parameters: key to Erythema induced by UVB radiation in mouse: presence (+); absence (-); conditions: individual animals No. 1-10; 0.5% gel topical, about 2.5 kJ/m^2 UVB, 24 hours after exposure
Text: The effect of p-nitrolophine and m-nitrolophine on erythema due to exposing the mouse skin to an irradiation source at maximum in the UVB region has been studied in these assays. The results obtained have been compared with the effect of 4-methylbenzylidene camphor (P5000) a substance considered as a UVB solar filter and with the effect of butyl methoxydibenzoylmethane (P1789) an UVA type filter, both products being commonly used in antisolar cosmetics.
35 male mice weighing more than 20 grams have been used. After receiving them, the animals were acclimated for 7 days at the place where the assays were preformed, they were being placed in a cage with controlled temperature (22°C), with relative humidity between 50% and 75%, replacing fresh filtered air approximately 10 times per hour and with 12 h light/dark cycles (7.00 - 19.00 light and from 19.00 to 7.00 dark). For this period and during the experimental period, the animals were fed ad libitum with standard diet for rodents and running water as drink.
The animals were randomly distributed into 4 experimental groups according to Table 7. The products to be tested were directly used, applying them in the form of a gel on an area of the skin such that each animal form its own control.
The test was performed following the method described by Winder et al. ["A study of Pharmacological influences on ultraviolet erythema in guinea pigs". Arch. Int Pharmacodyn, 116:261-292; 1958] and by other authors [Wendy et al. "The local antinociceptive and topical antiinflamatory effects of propyl gallate in rodents". Br. J. Pharmacol, 58:573 -581; 1976; Katiyar et al. "Protective Effects of Silymarin Against Photocarcinogenesis in a Mouse Skin Model". J Natl Cancer Inst 89:556-65; 1997] with slight modifications. The day […] the assay, as much hair as possible were removed from the animals by applying a layer of commercial hair-removing cream to remove all the trace of hair and to leave the skin of the back completely bare. The rest of the hair-removing cream were removed by means of washing and rinsing with running water and the animals were the returned to their corresponding cages where they remained until the following day.
On the day of the assay, the substances to be assayed were blindly applied on the back of the previously labelled animals following a random pattern (randomized). After applying the corresponding treatments, the animals were placed and pinned to the presentation platform of the equipment. The animals were then placed 8 cm from an ultraviolet light source of 4*40w with 313 nm of fundamental emission and a range comprised approximately between 290 and 350 nm and with an anti-UVC filter. The emission spectrum of said light source is depicted in Figure 1.
The exposure was maintained until all the animals have received an approximate total dose of 2.5 kJ/m^2. The dose of irradiation applied was determined by means of a ultraviolet light detector, the response curve of which is shown in Figure 2.
Twenty four hours after ending the exposure, the back of the animals was photographed and they were returned to their cages. The evaluation of erythema was performed by means of a positive/negative criterion, the percentage of protected animals being obtained. The statistic significance of the difference was evaluated by means of the non-parametric Fisher Test.

T1 sequence (Q92731 whole entry, species assumed): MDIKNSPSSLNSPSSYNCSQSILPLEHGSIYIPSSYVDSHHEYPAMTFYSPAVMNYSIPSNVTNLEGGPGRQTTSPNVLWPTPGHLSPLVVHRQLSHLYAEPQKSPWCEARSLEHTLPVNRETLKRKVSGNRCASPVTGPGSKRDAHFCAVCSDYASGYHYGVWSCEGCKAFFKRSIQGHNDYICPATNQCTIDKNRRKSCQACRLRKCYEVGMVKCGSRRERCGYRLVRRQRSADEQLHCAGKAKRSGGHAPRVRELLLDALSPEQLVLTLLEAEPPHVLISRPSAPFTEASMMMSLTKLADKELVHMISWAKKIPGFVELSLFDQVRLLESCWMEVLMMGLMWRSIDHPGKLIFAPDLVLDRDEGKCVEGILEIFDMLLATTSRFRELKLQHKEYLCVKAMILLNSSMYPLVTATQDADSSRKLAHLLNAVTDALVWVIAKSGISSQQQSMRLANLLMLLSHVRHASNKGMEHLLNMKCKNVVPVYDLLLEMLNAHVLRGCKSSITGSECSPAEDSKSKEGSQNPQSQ

Compound: c1ccc(-c2nc(-c3ccccc3)c(-c3ccccc3)[nH]2)cc1 [2,4,5-triphenyl-1H-imidazole]
- UV spectrum A (a.u) [1]: 0.817 a.u and 1.093 a.u
- UV spectrum λ (nm) [1]: 209.0 nm and 296.0 nm

Compound: Clc1ccc(-c2nc(-c3ccccc3)c(-c3ccccc3)[nH]2)cc1 [2-(4-chlorophenyl)-4,5-diphenyl-1H-imidazole]
- UV spectrum A (a.u) [1]: 1.066 a.u and 1.371 a.u
- UV spectrum λ (nm) [1]: 231.5 nm and 308.0 nm

Compound: CN(C)c1ccc(-c2nc(-c3ccccc3)c(-c3ccccc3)[nH]2)cc1 [2-[4-(N,N-dimethylamino)phenyl]-4,5-diphenyl-1H-imidazole]
- UV spectrum A (a.u) [1]: 2.032 a.u and 2.692 a.u
- UV spectrum λ (nm) [1]: 209.5 nm and 322 nm

Compound: O=[N+]([O-])c1ccc(-c2nc3c4ccccc4c4ccccc4c3[nH]2)cc1 [2-(4-nitrophenyl)-1H-phenanthro[9,10-d]imidazole]
- UV spectrum λ (nm) [1]: 202.0 nm and 256.0 nm and 388.5 nm

Compound: Oc1ccc(-c2nc(-c3ccccc3)c(-c3ccccc3)[nH]2)cc1 [2-(4-hydroxyphenyl)-4,5-diphenyl-1H-imidazole]
- UV spectrum A (a.u) [1]: 1.015 a.u and 1.364 a.u
- UV spectrum λ (nm) [1]: 225.0 nm and 300.5 nm

Compound: COc1ccc2c(c1)c(CC(=O)O)c(C)n2C(=O)c1ccc(Cl)cc1 [Indometacin, reference compound]
- % inhibition [2]: 87.7** (q = 7.6) %
- Average (Δ = RE - LE) ([2]; Dose (mg/ear) 0.5): 0.61
- LE Average ([2]; left ear (non treated), group average, 0.5 mg group): 6.7
- RE Average ([2]; right ear (treated), group average, 0.5 mg): 7.4
- LE ([2]; weight of 6 mm portion of left ear (non treated), individual mice, 0.5 mg group): 6.2 and 6.4 and 6.9 (2×) and 6.7 (3×) and 7.6 and 5.5 and 7.2
- RE ([2]; weight of 6 mm portion of right ear (treated), individual mice, 0.5 mg): 6.7 and 7.2 (2×) and 6.8 (2×) and 10 and 6.2 (2×) and 7.4 and 9.1

Compound: C[C@]12CC[C@@H]3c4ccc(O)cc4CC[C@H]3[C@@H]1CC[C@@H]2O [E2, 17β-estradiol, reference compound]
- Proliferative effect (PE) Mean [3]: 6, 62*
- activity at 0.01 µM [4]: 100%
- maximum cell proliferation rate [5]: about 6.2 ± 0.3

Compound: O=[N+]([O-])c1ccc(-c2nc(-c3ccc([N+](=O)[O-])cc3)c(-c3ccc([N+](=O)[O-])cc3)[nH]2)cc1 [2,4,5-tris(4-nitrophenyl)-1H-imidazole]
- UV spectrum A (a.u) [1]: 1.410 a.u and 1.923 a.u
- UV spectrum λ (nm) [1]: 236.0 nm and 370.0 nm

Compound: Cc1ccc(C=C2C(=O)C3(C)CCC2C3(C)C)cc1 (stereo not drawn) [P5000, 4-methylbenzylidene camphor, reference compound]
- maximum absorption [6]: 295 nm
- Erythema induced by UVB radiation in mouse [7]: -

Compound: COc1ccc(-c2nc(-c3ccccc3)c(-c3ccccc3)[nH]2)cc1 [2-(4-methoxyphenyl)-4,5-diphenyl-1H-imidazole]
- UV spectrum λ (nm) [1]: 252.5 nm and 297.5 nm

Compound: C(=C\c1nc(-c2ccccc2)c(-c2ccccc2)[nH]1)/c1ccccc1 [(E)-2-styryl-4,5-diphenyl-1H-imidazole]
- UV spectrum λ (nm) [1]: 235.2 nm and 344.4 nm

Compound: Fc1ccc(-c2nc(-c3ccccc3)c(-c3ccccc3)[nH]2)cc1 [2-(4-fluorophenyl)-4,5-diphenyl-1H-imidazole]
- UV spectrum A (a.u) [1]: 1.117 a.u and 1.536 a.u
- UV spectrum λ (nm) [1]: 224.0 nm and 297.5 nm

Compound: O=[N+]([O-])c1ccc(/C=C/c2nc(-c3ccccc3)c(-c3ccccc3)[nH]2)cc1 [(E)-2-(4-nitrostyryl)-4,5-diphenyl-1H-imidazole]
- UV spectrum λ (nm) [1]: 202.0 nm and 282.5 nm and 398.5 nm
